# Like-named read-outs stand apart in the source and are kept apart here.
# How the values were obtained:
# [1] = Example 3: UV/hydrogen peroxide sanitising of 90 m^3 apple conveying water, six photolysis chambers in series; format: physicochemical
# From the text: A hydraulic conveyor of a plant for sorting and packaging apples is selected containing a volume of 90 m^3 of water as composition for conveying Ariane, Rosy Glow and Pink Lady apples. A flow rate of conveying composition of 36 m^3/h is established in the external circuit and a flow rate of photoreactive composition of […] is established, the photoreactive composition being an aqueous solution of hydrogen peroxide at an initial concentration of 400 g/l. Under these flow conditions, all of the volume of the conveying composition of the hydraulic conveyor is theoretically treated within 2.5 hours. The composition at the inlet of the sanitising device has an initial hydrogen peroxide proportion in the order of 3 ppm sufficient to allow the decontamination of the composition at the outlet of the sanitising device formed of six photolysis chambers mounted in series, each chamber comprising five fluorescent tubes with an individual power of 200 W.
# The results obtained are shown in Table 2 hereinafter in which the concentration values of boscalid from the apples conveyed with the composition to be sanitised at the inlet of the sanitising device (EC) and at the outlet of sanitising device (SC) are given in μg/l. The column SE/EC represents the ratio multiplied by 100 of the boscalid concentration at the outlet of the sixth chamber of the photolysis tank to the boscalid concentration at the inlet of the photolysis tank (EC). The column C/C0 represents the ratio of the boscalid concentration measured at the inlet of the sanitising device over time to the initial boscalid concentration (t=0).
# [2] = format: physicochemical
# Procedure: A hydraulic conveyor of a plant for sorting and packaging apples is selected containing a volume of 90 m^3 of a conveying composition containing “BELLIS” at a concentration of 50 m g/l (and boscalid at a concentration of 22 μg/l). A flow rate of the conveying composition of 36 m^3/h is established in the external circuit using the circulation pump 14 and a flow rate of photoreactive composition of 270 cm^3/h is established using the distribution pump 19, the photoreactive composition being an aqueous solution of hydrogen peroxide at an initial concentration of 400 g/l, i.e. 108 g or pure hydrogen peroxide. Under these conveying composition flow conditions, all of the volume of the conveying composition contained in the plant is theoretically treated within 2.5 hours. The composition to be sanitised obtained at the inlet of the sanitising device thus has an initial hydrogen peroxide proportion in the order of 3 ppm and is sufficient to allow the decontamination of the composition to be sanitised at the outlet of the sanitising device formed of 6 photolysis chambers mounted in series, each chamber comprising five fluorescent tubes with an individual power of 200 W.
# The results obtained are shown in Table 1 hereinafter in which the concentration values of boscalid in the composition to be sanitised at the inlet of the photolysis tank (EC), at the outlet of the third chamber (S3E) of the photolysis tank and at the outlet of the sixth chamber (S6E) of the photolysis tank are given in μg/l. The column S6E/EC represents the ratio multiplied by 100 of the boscalid concentration at the outlet of the sixth chamber (S6E) of the photolysis tank to the boscalid concentration at the inlet of the photolysis tank (EC). The column C/C0 represents the ratio of the boscalid concentration measured at the inlet of the photolysis tank over time to the initial boscalid concentration (t=0).
smiles,measurement,setting,value
O=C(Nc1ccccc1-c1ccc(Cl)cc1)c1cccnc1Cl [boscalid],boscalid concentration at the inlet of the sanitising device (EC),[1]; time 0 hours,2.83 µg/L
same,percent boscalid removed between inlet and outlet of the sanitising device (100 x (1 - SC/EC)),[1]; time 0 hours,100%
same,boscalid concentration at the inlet of the sanitising device (EC),[1]; time 4 hours,4.76 µg/L
same,boscalid concentration at the outlet of the sanitising device (SC),[1]; time 4 hours,0.065 µg/L
same,percent boscalid removed between inlet and outlet of the sanitising device (100 x (1 - SC/EC)),[1]; time 4 hours,98.6%
same,boscalid concentration at the inlet of the sanitising device (EC),[1]; time 7 hours,2.84 µg/L
same,boscalid concentration at the outlet of the sanitising device (SC),[1]; time 7 hours,0.206 µg/L
same,percent boscalid removed between inlet and outlet of the sanitising device (100 x (1 - SC/EC)),[1]; time 7 hours,92.8%
same,C/C0 (inlet boscalid concentration over initial concentration),[1]; time 7.1 hours,1
same,boscalid concentration at the inlet of the sanitising device (EC),[1]; time 7.1 hours,4.19 µg/L
same,percent boscalid removed between inlet and outlet of the sanitising device (100 x (1 - SC/EC)),[1]; time 7.1 hours,100%
same,C/C0 (inlet boscalid concentration over initial concentration),[1]; time 10.5 hours,0.41
same,boscalid concentration at the inlet of the sanitising device (EC),[1]; time 10.5 hours,1.73 µg/L
same,boscalid concentration at the outlet of the sanitising device (SC),[1]; time 10.5 hours,0.062 µg/L
same,percent boscalid removed between inlet and outlet of the sanitising device (100 x (1 - SC/EC)),[1]; time 10.5 hours,96.4%
same,C/C0 (inlet boscalid concentration over initial concentration),[1]; time 12.5 hours,0.32
same,boscalid concentration at the inlet of the sanitising device (EC),[1]; time 12.5 hours,1.35 µg/L
same,percent boscalid removed between inlet and outlet of the sanitising device (100 x (1 - SC/EC)),[1]; time 12.5 hours,100%
same,C/C0 (inlet boscalid concentration over initial concentration),[1]; time 14.75 hours,0.41
same,boscalid concentration at the inlet of the sanitising device (EC),[1]; time 14.75 hours,1.71 µg/L
same,boscalid concentration at the outlet of the sanitising device (SC),[1]; time 14.75 hours,0.058 µg/L
same,percent boscalid removed between inlet and outlet of the sanitising device (100 x (1 - SC/EC)),[1]; time 14.75 hours,96.6%
same,C/C0 (inlet boscalid concentration over initial concentration),[1]; time 17.25 hours,0.28
same,boscalid concentration at the inlet of the sanitising device (EC),[1]; time 17.25 hours,1.18 µg/L
same,boscalid concentration at the outlet of the sanitising device (SC),[1]; time 17.25 hours,0.040 µg/L
same,percent boscalid removed between inlet and outlet of the sanitising device (100 x (1 - SC/EC)),[1]; time 17.25 hours,96.6%
same,C/C0 (inlet boscalid concentration over initial concentration),[1]; time 19.25 hours,0.45
same,boscalid concentration at the inlet of the sanitising device (EC),[1]; time 19.25 hours,1.88 µg/L
same,percent boscalid removed between inlet and outlet of the sanitising device (100 x (1 - SC/EC)),[1]; time 19.25 hours,100%
same,C/C0 (inlet boscalid concentration over initial concentration),[1]; time 22.75 hours,0.25
same,boscalid concentration at the inlet of the sanitising device (EC),[1]; time 22.75 hours,1.07 µg/L
same,boscalid concentration at the outlet of the sanitising device (SC),[1]; time 22.75 hours,0.064 µg/L
same,percent boscalid removed between inlet and outlet of the sanitising device (100 x (1 - SC/EC)),[1]; time 22.75 hours,94%
same,C/C0 (inlet boscalid concentration over initial concentration),[1]; time 24.75 hours,0.15
same,boscalid concentration at the inlet of the sanitising device (EC),[1]; time 24.75 hours,0.64 µg/L
same,boscalid concentration at the outlet of the sanitising device (SC),[1]; time 24.75 hours,0.057 µg/L
same,percent boscalid removed between inlet and outlet of the sanitising device (100 x (1 - SC/EC)),[1]; time 24.75 hours,91.2%
same,C/C0 (inlet boscalid concentration over initial concentration),[1]; time 28.75 hours,0.16
same,boscalid concentration at the inlet of the sanitising device (EC),[1]; time 28.75 hours,0.66 µg/L
same,boscalid concentration at the outlet of the sanitising device (SC),[1]; time 28.75 hours,0.039 µg/L
same,percent boscalid removed between inlet and outlet of the sanitising device (100 x (1 - SC/EC)),[1]; time 28.75 hours,94%
same,C/C0 (inlet boscalid concentration over initial concentration),[1]; time 29.75 hours,0.22
same,boscalid concentration at the inlet of the sanitising device (EC),[1]; time 29.75 hours,0.93 µg/L
same,percent boscalid removed between inlet and outlet of the sanitising device (100 x (1 - SC/EC)),[1]; time 29.75 hours,100%
same,C/C0 (inlet boscalid concentration over initial concentration),[1]; time 32.25 hours,0.19
same,boscalid concentration at the inlet of the sanitising device (EC),[1]; time 32.25 hours,0.79 µg/L
same,boscalid concentration at the outlet of the sanitising device (SC),[1]; time 32.25 hours,0.040 µg/L
same,percent boscalid removed between inlet and outlet of the sanitising device (100 x (1 - SC/EC)),[1]; time 32.25 hours,95%
same,C/C0 (inlet boscalid concentration over initial concentration),[1]; time 34.75 hours,0.17
same,boscalid concentration at the inlet of the sanitising device (EC),[1]; time 34.75 hours,0.73 µg/L
same,boscalid concentration at the outlet of the sanitising device (SC),[1]; time 34.75 hours,0.043 µg/L
same,percent boscalid removed between inlet and outlet of the sanitising device (100 x (1 - SC/EC)),[1]; time 34.75 hours,94.1%
same,rate of degradation between the inlet and outlet of the photolysis tank,[2]; 22 μg/l,greater than 90%
same,boscalid concentration at the inlet of the photolysis tank (EC),[2]; time 0 hours,21.43 µg/L
same,C/C0 (inlet boscalid concentration over initial concentration),[2]; time 1.25 hours,0.79
same,S6E/EC,[2]; time 1.25 hours,92%
same,boscalid concentration at the inlet of the photolysis tank (EC),[2]; time 1.25 hours,16.64 µg/L
same,boscalid concentration at the outlet of the sixth chamber (S6E),[2]; time 1.25 hours,1.28 µg/L
same,C/C0 (inlet boscalid concentration over initial concentration),[2]; time 2.5 hours,0.73
same,S6E/EC,[2]; time 2.5 hours,94%
same,boscalid concentration at the inlet of the photolysis tank (EC),[2]; time 2.5 hours,15.68 µg/L
same,boscalid concentration at the outlet of the sixth chamber (S6E),[2]; time 2.5 hours,0.99 µg/L
same,boscalid concentration at the outlet of the third chamber (S3E),[2]; time 2.5 hours,3.96 µg/L
same,C/C0 (inlet boscalid concentration over initial concentration),[2]; time 3.75 hours,0.73
same,S6E/EC,[2]; time 3.75 hours,94%
same,boscalid concentration at the inlet of the photolysis tank (EC),[2]; time 3.75 hours,15.56 µg/L
same,boscalid concentration at the outlet of the sixth chamber (S6E),[2]; time 3.75 hours,0.91 µg/L
same,boscalid concentration at the outlet of the third chamber (S3E),[2]; time 3.75 hours,3.38 µg/L
same,C/C0 (inlet boscalid concentration over initial concentration),[2]; time 5 hours,0.66
same,S6E/EC,[2]; time 5 hours,94%
same,boscalid concentration at the inlet of the photolysis tank (EC),[2]; time 5 hours,14.06 µg/L
same,boscalid concentration at the outlet of the sixth chamber (S6E),[2]; time 5 hours,0.56 µg/L
same,boscalid concentration at the outlet of the third chamber (S3E),[2]; time 5 hours,2.71 µg/L
same,C/C0 (inlet boscalid concentration over initial concentration),[2]; time 7.5 hours,0.38
same,boscalid concentration at the inlet of the photolysis tank (EC),[2]; time 7.5 hours,8.25 µg/L
same,boscalid concentration at the outlet of the third chamber (S3E),[2]; time 7.5 hours,1.78 µg/L
same,elimination from the conveying composition of the hydraulic conveyor,[2]; within 7.5 hours,62%

# Reference: patent US10919785B2, “Hydraulic conveyor of floating objects provided with a device for sanitising conveying composition, plant provided with such a conveyor and sanitising method” (MAF AGROBOTIC, priority 2016, dated 2021)
